Assay results as given in the supplement of paper PMC13380429.

Tests used:
Details in all cases: 72 h
HepG2 [1] = test: relative viability EC50 (midpoint between 100% and the lowest measured viability); higher = less toxic
Caco-2 [2] = test: as above
Vero E6 [3] = test: as above
U2OS [4] = test: as above
Calu-3 [5] = test: as above
HepG2 [6] = test: drug sensitivity score (DSS) for viability; higher = more toxic; extreme values may be limits of the assay
Caco-2 [7] = test: as above
Vero E6 [8] = test: as above
U2OS [9] = test: as above
Calu-3 [10] = test: as above
HepG2 [11] = test: cell viability relative to DMSO; higher = less toxic
Caco-2 [12] = test: as above
Vero E6 [13] = test: as above
U2OS [14] = test: as above
Calu-3 [15] = test: as above

| SMILES | relative viability EC50 (HepG2 [1]) [µM] | relative viability EC50 (Caco-2 [2]) [µM] | relative viability EC50 (Vero E6 [3]) [µM] | relative viability EC50 (U2OS [4]) [µM] | relative viability EC50 (Calu-3 [5]) [µM] | drug sensitivity score (HepG2 [6]) | drug sensitivity score (Caco-2 [7]) | drug sensitivity score (Vero E6 [8]) | drug sensitivity score (U2OS [9]) | drug sensitivity score (Calu-3 [10]) | cell viability (HepG2 [11]; 1 nM) [%] | cell viability (HepG2 [11]; 10 nM) [%] | cell viability (HepG2 [11]; 100 nM) [%] | cell viability (HepG2 [11]; 1000 nM) [%] | cell viability (HepG2 [11]; 10000 nM) [%] | cell viability (Caco-2 [12]; 1 nM) [%] | cell viability (Caco-2 [12]; 10 nM) [%] | cell viability (Caco-2 [12]; 100 nM) [%] | cell viability (Caco-2 [12]; 1000 nM) [%] | cell viability (Caco-2 [12]; 10000 nM) [%] | cell viability (Vero E6 [13]; 1 nM) [%] | cell viability (Vero E6 [13]; 10 nM) [%] | cell viability (Vero E6 [13]; 100 nM) [%] | cell viability (Vero E6 [13]; 1000 nM) [%] | cell viability (Vero E6 [13]; 10000 nM) [%] | cell viability (U2OS [14]; 1 nM) [%] | cell viability (U2OS [14]; 10 nM) [%] | cell viability (U2OS [14]; 100 nM) [%] | cell viability (U2OS [14]; 1000 nM) [%] | cell viability (U2OS [14]; 10000 nM) [%] | cell viability (Calu-3 [15]; 1 nM) [%] | cell viability (Calu-3 [15]; 10 nM) [%] | cell viability (Calu-3 [15]; 100 nM) [%] | cell viability (Calu-3 [15]; 1000 nM) [%] | cell viability (Calu-3 [15]; 10000 nM) [%] |
| --- | --- | --- | --- | --- | --- | --- | --- | --- | --- | --- | --- | --- | --- | --- | --- | --- | --- | --- | --- | --- | --- | --- | --- | --- | --- | --- | --- | --- | --- | --- | --- | --- | --- | --- | --- |
| CCCCC(=O)O[C@]1(C(=O)CO)CC[C@H]2[C@@H]3CCC4=CC(=O)CC[C@]4(C)[C@H]3[C@@H](O)C[C@@]21C [hydrocortisone-valerate] | > 10 | > 10 | > 10 | > 10 | > 10 | 0 | 0 | 0 | 0 | 0 | 103 | 97 | 101 | 96.5 | 103 | 103 | 99 | 88 | 109 | 99.3 | 107 | 105 | 101 | 98.5 | 101 | 95.5 | 97.1 | 92.5 | 100 | 93.2 | 87.3 | 97.1 | 86.5 | 95.9 | 103 |
| CC(OC(=O)NCC1(CC(=O)O)CCCCC1)OC(=O)C(C)C (stereo not given) [gabapentin-enacarbil] | > 10 | > 10 | > 10 | > 10 | > 10 | 0 | 0 | 0 | 0 | 0 | 101 | 93.8 | 94.7 | 90.1 | 89.4 | 105 | 87.2 | 106 | 110 | 104 | 83.4 | 97.8 | 84.2 | 107 | 106 | 101 | 96.5 | 102 | 94 | 102 | 103 | 96.3 | 106 | 104 | 89 |
| O=C(c1cc(C2CC2)on1)N(C1CCCCC1)C1CCCCC1 [CYM-5541] | > 10 | > 10 | > 10 | > 10 | > 10 | 0 | 0 | 0 | 0 | 0 | 98.6 | 93.9 | 98.4 | 92.3 | 89.6 | 94.9 | 97.8 | 97.5 | 99.4 | 90 | 106 | 103 | 99.5 | 95.3 | 99.6 | 98 | 97.8 | 96.3 | 97.2 | 94.4 | 102 | 98.1 | 97.2 | 96.8 | 99 |
| CCO[C@H]1O[C@@H]2O[C@@]3(C)CC[C@H]4[C@H](C)CC[C@@H]([C@H]1C)[C@@]24OO3 [artemotil] | > 10 | > 10 | > 10 | > 10 | > 10 | 0.2 | 0 | 0 | 1 | 0 | 107 | 100 | 104 | 89.1 | 94.5 | 92.1 | 101 | 86.6 | 94.5 | 91.5 | 89.7 | 95.1 | 95.8 | 91.5 | 98 | 98.1 | 100 | 95.4 | 97.2 | 79.1 | 94.2 | 109 | 95.4 | 109 | 104 |
| CC(=C(CCO)SSCC1CCCO1)N(C=O)Cc1cnc(C)nc1N (stereo in doubt) [fursultiamine] | > 10 | > 10 | > 10 | > 10 | > 10 | 0 | 0 | 0 | 0 | 0 | 93.3 | 87.5 | 90.2 | 110 | 97.8 | 112 | 91.6 | 97.6 | 106 | 96 | 106 | 95.5 | 99.2 | 97.3 | 102 | 101 | 102 | 98.7 | 97.8 | 98.2 | 98.5 | 101 | 108 | 110 | 114 |
| O=C1CCC[C@@H]2[C@H]3C[C@@H](CN12)[C@@H]1CCCCN1C3 [lupanine] | > 10 | > 10 | > 10 | > 10 | > 10 | 0 | 1.8 | 0 | 0 | 0 | 99.4 | 95.7 | 93 | 110 | 93.7 | 103 | 92.8 | 90.4 | 87.2 | 91.4 | 92.1 | 97.9 | 93.8 | 98.1 | 95.7 | 101 | 96.2 | 98.6 | 94 | 100 | 87.2 | 96.8 | 99.5 | 95.5 | 94.4 |
| CCN(CC)CCCC(C)Nc1nc(C)cc(Nc2ccc3nc(C)cc(N)c3c2)n1 (stereo not given) | > 10 | > 10 | > 10 | > 10 | > 10 | 1.2 | 0 | 0 | 0 | 0 | 96 | 99.9 | 100 | 95.6 | 79.9 | 102 | 97.2 | 99.5 | 95 | 105 | 97.7 | 102 | 104 | 97.9 | 97.6 | 106 | 97.6 | 100 | 97.8 | 102 | 104 | 92 | 95.4 | 92.5 | 110 |
